Laboratory results published in patent US5571785A, “Biologically active compounds” (Farmitalia Carlo Erba S.r.l, priority 1993, dated 1996).
Where a name gives a salt, the structure may show the parent alone.

How the values were obtained:
[1] = tested on: M5076 murine reticulosarcoma; experiment: Antitumour activity (and toxic deaths) against M5076 murine reticulosarcoma transplanted s.c. in mice; format: in vivo, mouse (C75 B1/6 mice); details: for A.U.C. % inhib / T.C. % (median survival time treated/control × 100) / TOX (number of toxic deaths/total number of mice) / TDG (Tumor Growth Delay) (1 g) / LTS (Long Terms Survivors) / Tox (number of toxic deaths/total number of mice) / Tumor free (mice tumor free at the end of the experiments): days 5, 9, 15; for TDG (Tumor Growth Delay) (1 g): time to reach 1 g tumor weight
Protocol: Antitumour activity of compound A1 on M5076.
The antitumour activity of A1, described in Example 13, was tested as follows:
All drug solutions were prepared immediately before use. Treatment was administered i.v. in a volume of 10 ml/Kg body weight at days 5,9 and 15.
Anthracyclines were dissolved in sterile water and the concentration was checked spectrophotometrically.
Lyophylized polymers were dissolved in water to give a starting solution of 25 mg anthracycline equivalent/ml according to the reported concentration,further dilutions were performed in water.
M5076 murine reticulosarcoma was obtained by serial i.m. passage and transplanted (5×10^5 cells/mouse) s.c. in C75 B1/6 mice to evaluate the activity on primary tumor.
Tumor growth was assessed by. caliper measurement, and the tumor weight estimated according to Geran etal., see Cancer Chemother. Rep. 3, 1 (1972).
The antitumor activity was determined in time (days) to reach one gramm tumor weight and is reported as tumor growth delay (TGD).
The median increase in survival time (T/C%) was calculated using the following formula: [formula]
Toxicity was evaluated on the basis of body weight reduction and gross finding main of spleen and liver reduction.
Neurotoxicity is determined as number of mice with lack of motor function. […]
The antitumor activity was tested with the same treatment schedule for 4'-epidoxorubicin.HCl and compound A4.

[2] = Single-dose i.v. toxicity in healthy mice (LD10, LD50, therapeutic index); format: in vivo, mouse; details: mouse, in vivo, iv; single dose i.v., healthy C57 B1/F mice, Probit Analysis after 3-week recovery
Protocol: (§1) Toxicity was evaluated in healthy C57B1F mice, treatment i.v., with single doses of 4'-epidoxorubicin.HCl (13.2-16.15-19-20.6-25.2 and 33.2 mg/kg) and compound A4 (50-63-79-100-120-140 mg/kg)
(§2) For the determination of LD10 and LD= in healthy C57 B1F mice the Probit Analysis' after 3-week recovery was used.
(§3) The therapeutic index was calculated using the following formula: [formula]
(§4) Dose effective 50 is the dose causing 50% of tumor growth reduction.

[3] = tested on: healthy C57B1F mice; experiment: as above; format: in vivo, mouse; details: for LD10: Probit Analysis after 3-week recovery
Protocol: as §1, §2, §3, §4

[4] = single dose i.v., healthy C57 B1/F mice
[5] = Table 2, 4.0 mg/kg (anthracycline equivalent) i.v.
[6] = Table 2, 5.0 mg/kg (anthracycline equivalent) i.v.
[7] = Table 2, 6.0 mg/kg (anthracycline equivalent) i.v.
[8] = Table 1, 30.0 mg/kg (anthracycline equivalent) i.v.
[9] = Table 1, 40.0 mg/kg (anthracycline equivalent) i.v.
[10] = Table 1, 50.0 mg/kg (anthracycline equivalent) i.v.

COc1cccc2c1C(=O)c1c(O)c3c(c(O)c1C2=O)C[C@@](O)(C(=O)CO)C[C@@H]3O[C@H]1C[C@H](N)[C@@H](O)[C@H](C)O1 [4'-epidoxorubicin.HCl, reference compound]
A.U.C. % inhib ([1]; Table 3, 5 mg/kg): 51% | T.C. % (median survival time treated/control × 100) ([1]; Table 3, 5 mg/kg): 105% | TOX (number of toxic deaths/total number of mice) ([1]; Table 3, 5 mg/kg): 0/9 | TDG (Tumor Growth Delay) (1 g) ([1]; Table 3, 5 mg/kg): 22 days | A.U.C. % inhib ([1]; Table 3, 7.5 mg/kg): 90% | T.C. % (median survival time treated/control × 100) ([1]; Table 3, 7.5 mg/kg): 124% | TOX (number of toxic deaths/total number of mice) ([1]; Table 3, 7.5 mg/kg): 0/9 | TDG (Tumor Growth Delay) (1 g) ([1]; Table 3, 7.5 mg/kg): 34 days | A.U.C. % inhib ([1]; Table 3, 10 mg/kg): 99% | T.C. % (median survival time treated/control × 100) ([1]; Table 3, 10 mg/kg): 125% | TOX (number of toxic deaths/total number of mice) ([1]; Table 3, 10 mg/kg): 0/9 | TDG (Tumor Growth Delay) (1 g) ([1]; Table 3, 10 mg/kg): 40 days | LD50 at 504 h [2]: 21.4 mg/kg | LD10 [3, 4]: 16.4 mg/kg

CC(=O)[C@]1(O)Cc2c(O)c3c(c(O)c2[C@@H](O[C@H]2C[C@H](N)[C@H](O)[C@H](C)O2)C1)C(=O)c1ccccc1C3=O [4-demethoxydaunorubicin, reference compound]
A.U.C. % inhib ([1]; Table 2, 1.0 mg/kg i.v.): 47% | LTS (Long Terms Survivors) ([1]; Table 2, 1.0 mg/kg i.v.): 0/9 | T.C. % (median survival time treated/control × 100) ([1]; Table 2, 1.0 mg/kg i.v.): 142% | Tox (number of toxic deaths/total number of mice) ([1]; Table 2, 1.0 mg/kg i.v.): 0/9 | Tumor free (mice tumor free at the end of the experiments) ([1]; Table 2, 1.0 mg/kg i.v.): 0/9 | TDG (Tumor Growth Delay) (1 g) ([1]; Table 2, 1.0 mg/kg i.v.): 19 days | A.U.C. % inhib ([1]; Table 2, 1.5 mg/kg i.v.): 80% | LTS (Long Terms Survivors) ([1]; Table 2, 1.5 mg/kg i.v.): 0/9 | T.C. % (median survival time treated/control × 100) ([1]; Table 2, 1.5 mg/kg i.v.): 160% | Tox (number of toxic deaths/total number of mice) ([1]; Table 2, 1.5 mg/kg i.v.): 0/9 | Tumor free (mice tumor free at the end of the experiments) ([1]; Table 2, 1.5 mg/kg i.v.): 0/9 | TDG (Tumor Growth Delay) (1 g) ([1]; Table 2, 1.5 mg/kg i.v.): 28 days

COc1cccc2c1C(=O)c1c(O)c3c(c(O)c1C2=O)C[C@@](O)(C(=O)CO)C[C@@H]3O[C@H]1C[C@H](N)[C@H](O)[C@H](C)O1 [doxorubicin, reference compound]
A.U.C. % inhib ([1]; Table 1, 7.5 mg/kg i.v.): 90% | LTS (Long Terms Survivors) ([1]; Table 1, 7.5 mg/kg i.v.): 0/26 | Tox (number of toxic deaths/total number of mice) ([1]; Table 1, 7.5 mg/kg i.v.): 0/26 | Tumor free (mice tumor free at the end of the experiments) ([1]; Table 1, 7.5 mg/kg i.v.): 0/26 | TDG (Tumor Growth Delay) (1 g) ([1]; Table 1, 7.5 mg/kg i.v.): 35 days | A.U.C. % inhib ([1]; Table 1, 10.0 mg/kg i.v.): 100% | LTS (Long Terms Survivors) ([1]; Table 1, 10.0 mg/kg i.v.): 0/26 | Tox (number of toxic deaths/total number of mice) ([1]; Table 1, 10.0 mg/kg i.v.): 3/26 | Tumor free (mice tumor free at the end of the experiments) ([1]; Table 1, 10.0 mg/kg i.v.): 0/26 | TDG (Tumor Growth Delay) (1 g) ([1]; Table 1, 10.0 mg/kg i.v.): 39 days

Copolymer of 3-methacryloylamino-2-hydroxypropane, 4'-epi-3'-N-(methacryloylglycyl-L-phenylalanyl-L-leuculglycyl)doxorubicin and 1-N-(methacryloylgylcyl)-2-hydrocypropane [A4]
A.U.C. % inhib ([1]; Table 3, 10 mg/kg): 100% | T.C. % (median survival time treated/control × 100) ([1]; Table 3, 10 mg/kg): 190% | TOX (number of toxic deaths/total number of mice) ([1]; Table 3, 10 mg/kg): 0/9 | TDG (Tumor Growth Delay) (1 g) ([1]; Table 3, 10 mg/kg): 62 days | A.U.C. % inhib ([1]; Table 3, 20 mg/kg): 100% | T.C. % (median survival time treated/control × 100) ([1]; Table 3, 20 mg/kg): 219% | TOX (number of toxic deaths/total number of mice) ([1]; Table 3, 20 mg/kg): 0/9 | TDG (Tumor Growth Delay) (1 g) ([1]; Table 3, 20 mg/kg): 62 days | A.U.C. % inhib ([1]; Table 3, 30 mg/kg): 100% | T.C. % (median survival time treated/control × 100) ([1]; Table 3, 30 mg/kg): 229% | TOX (number of toxic deaths/total number of mice) ([1]; Table 3, 30 mg/kg): 0/9 | TDG (Tumor Growth Delay) (1 g) ([1]; Table 3, 30 mg/kg): 71 days | Activity against early M5076 murine reticulosarcoma compared with free drug ([1]; versus 4'-epidoxorubicin.HCl, same treatment schedule): more active than free drug at all tested doses | therapeutic index ([3]; calculated by formula using dose effective 50 (dose causing 50% of tumor growth reduction)): 40 | toxicity ([3]; compared with 4'-epidoxorubicin.HCl): low toxicity | LD10 [3, 4]: 128.0 mg/kg | LD50 (extrapolated value) ([3]; single dose i.v., healthy C57 B1/F mice, Probit Analysis, extrapolated value, 30240 min): 389 mg/kg

Copolymer of 3-methacryloylamino-2-hyvdroxypropane, 4-demethoxy, 3'-N-(methacrylgylcyl-L-phenylalanyl-L-leucyl glycyl)daunorubicin and N-methacryloylglycine [A3]
A.U.C. % inhib [1, 5]: 100% | LTS (Long Terms Survivors) [1, 5]: 0/10 | T.C. % (median survival time treated/control × 100) [1, 5]: 198% | Tox (number of toxic deaths/total number of mice) [1, 5]: 0/10 | Tumor free (mice tumor free at the end of the experiments) [1, 5]: 0/10 | TDG (Tumor Growth Delay) (1 g) [1, 5]: 49 days | A.U.C. % inhib [1, 6]: 100% | LTS (Long Terms Survivors) [1, 6]: 0/10 | T.C. % (median survival time treated/control × 100) [1, 6]: 205% | Tox (number of toxic deaths/total number of mice) [1, 6]: 0/10 | Tumor free (mice tumor free at the end of the experiments) [1, 6]: 0/10 | TDG (Tumor Growth Delay) (1 g) [1, 6]: 50 days | A.U.C. % inhib [1, 7]: 100% | LTS (Long Terms Survivors) [1, 7]: 0/9 | T.C. % (median survival time treated/control × 100) [1, 7]: 212% | Tox (number of toxic deaths/total number of mice) [1, 7]: 0/9 | Tumor free (mice tumor free at the end of the experiments) [1, 7]: 0/9 | TDG (Tumor Growth Delay) (1 g) [1, 7]: 55 days

Copolymer of 3-methacryloylamino-2hydroxypropane, 3'-N-(methacryloylgly-L-phenlalanyl-L-leucylqlycyl)doxorubicin and N-methacryloylqlycine [A1]
A.U.C. % inhib [1, 8]: 100% | LTS (Long Terms Survivors) [1, 8]: 4/10 | T.C. % (median survival time treated/control × 100) [1, 8]: 378% | Tox (number of toxic deaths/total number of mice) [1, 8]: 0/10 | Tumor free (mice tumor free at the end of the experiments) [1, 8]: 3/10 | TDG (Tumor Growth Delay) (1 g) [1, 8]: 80 days | A.U.C. % inhib [1, 9]: 100% | LTS (Long Terms Survivors) [1, 9]: 6/10 | T.C. % (median survival time treated/control × 100) [1, 9]: > 369% | Tox (number of toxic deaths/total number of mice) [1, 9]: 0/10 | Tumor free (mice tumor free at the end of the experiments) [1, 9]: 5/10 | A.U.C. % inhib [1, 10]: 100% | LTS (Long Terms Survivors) [1, 10]: 7/10 | T.C. % (median survival time treated/control × 100) [1, 10]: > 369% | Tumor free (mice tumor free at the end of the experiments) [1, 10]: 7/10 | Tox (number of toxic deaths/total number of mice) ([1]; Table 1, 50.0 mg/kg (anthracycline equivalent) i.v., footnote *Neurotoxicity): 2/10
